Laboratory results as given in patent US4322546A, “15-Deoxy-16-hydroxy-16-allenyl prostane derivatives of the E and F series” (American Cyanamid Company, priority 1980, dated 1982).

Experiments:
Assay type in all cases: in vivo, Guinea-Pigs
[1] = test system: bronchospasms elicited by intravenous injections of serotonin; test: bronchodilator activity, Konzett procedure, against serotonin-induced bronchospasm; conditions: Cavia porcellus; three logarithmic cumulative intravenous doses; spasmogen serotonin i.v.
Procedure: (§1) The bronchodilator activity for representative compounds of this invention was determined in Guinea-Pigs against bronchospasms elicited by intravenous injections of serotonin, histamine, and acetylcholine, by the Konzett procedure, the details of which are discussed by J. Lulling, P. Lievens, F. El Sayed and J. Prignot, Arzeimittel-Forschung 18, 995 (1968).
(§2) In the table which follows, bronchodilator activity for representative compounds of the invention against spasmogenic agents serotonin, histamine, and acetylcholine is expressed as an ED50 determined from the results obtained with three logarithmic cumulative intravenous doses.

[2] = test system: bronchospasms elicited by intravenous injections of acetylcholine; test: bronchodilator activity, Konzett procedure, against acetylcholine-induced bronchospasm; conditions: Cavia porcellus; three logarithmic cumulative intravenous doses; spasmogen acetylcholine i.v.
Procedure: as §1, §2

[3] = test system: bronchospasms elicited by intravenous injections of histamine; test: bronchodilator activity, Konzett procedure, against histamine-induced bronchospasm; conditions: Cavia porcellus; three logarithmic cumulative intravenous doses; spasmogen histamine i.v.
Procedure: as §1, §2

Compound | ED50 [1] [µg/kg] | ED50 [2] [µg/kg] | ED50 [3] [µg/kg]
C=C=CC(O)(C/C=C/[C@H]1[C@H](O)CC(=O)[C@@H]1CCCCCCC(=O)O)CCCC (relative stereo) [dl 15-deoxy-16-hydroxy-16-allenyl-PGE1, dl-11α,16-dihydroxy-9-oxo-16-allenyl-13-trans prostenoic acid] | 1.05 | 1.2 | 1
C=C=CC(O)(C/C=C/[C@H]1[C@H](O)CC(=O)[C@@H]1C/C=C\CCCC(=O)O)CCCC (relative stereo) [dl 15-deoxy-16-hydroxy-16-allenyl-PGE2, dl-11α,16-dihydroxy-9-oxo-16-allenyl-5-cis-13-trans prostadienoic acid] | 1.4 | 1.2 | 1
